Data set [1] has as its system RAW264.7. Kind of data set: Anti-inflammatory activity in LPS-stimulated mouse RAW264.7 cells assessed as inhibition of NO production at 16 uM incubated for 24 hrs by Griess reagent based assay. It is filed as functional, cell-based.
A short description of data set [2]: Hemolytic activity in mouse erythrocytes assessed as haemoglobin release at 400 uM incubated for 1 hrs by microplate reader method. The data set is classed as toxicity, cell-based, Erythrocyte. As to conditions: read-out: Activity.
For data set [3], the system named is Escherichia coli. Description: Antimicrobial activity against Escherichia coli ML-35 assessed as inhibition of bacterial growth incubated for 18 hrs by serial dilution method. The data set is classed as functional.
Data set [4] relates to Staphylococcus aureus. Description: Antimicrobial activity against Staphylococcus aureus ATCC 29213 assessed as inhibition of bacterial growth incubated for 18 hrs by serial dilution method. The data set is classed as functional.
In data set [5] the test system is NIH3T3. Description: Induction of cell migration in mouse NIH3T3 cells assessed as […] at 0.1 to 1000 nM incubated for 48 hrs by phase-contrast microscopy based scratch wound healing assay. It is filed as functional. The following applies: dose 0.1-1000 nM.
In data set [6] the test system is HEK293. Kind of data set: Induction of cell proliferation in human HEK293 cells assessed as increase in cell viability at 0.1 to 1000 nM incubated for 48 hrs by MTT assay. It is filed as functional, cell-based. As to conditions: dose 0.1-1000 nM.
Data set [7] relates to RAW264.7. Kind of data set: Cytotoxicity against mouse RAW264.7 cells assessed as reduction in cell viability at 1 to 16 uM incubated for 24 hrs by MTT assay. The data set is classed as toxicity, cell-based. As to conditions: raw264.7, 24 h, dose 1-16 µM. On the technique in general: Formazan colour is commonly taken as a measure of viable cells.
Data set [8] has as its system Staphylococcus aureus. Kind of data set: Antimicrobial activity against Staphylococcus aureus ATCC 25923 assessed as inhibition of bacterial growth incubated for 18 hrs by serial dilution method. The data set is classed as functional.
Another data set concerns Bacillus subtilis. Description: Antimicrobial activity against Bacillus subtilis ATCC 23857 assessed as inhibition of bacterial growth incubated for 18 hrs by serial dilution method. The data set is classed as functional.
Data set [9] has as its system Pseudomonas aeruginosa. Description: Antimicrobial activity against Pseudomonas aeruginosa ATCC 27853 assessed as inhibition of bacterial growth incubated for 18 hrs by serial dilution method. It is filed as functional.
In data set [10] the test system is Escherichia coli. Description: Antimicrobial activity against Escherichia coli ATCC 25922 assessed as inhibition of bacterial growth incubated for 18 hrs by serial dilution method. The data set is classed as functional.
Data set [11] is filed under the species Mus musculus. Description: Wound healing activity in Kunming mouse full-thickness excisional wound model assessed as increase in wound closure at 1 10^-7M, TOP BID and measured upto 8 days by image analysis. It is filed as functional, organism-based. As to conditions: time <= 8.0 day.
Data set [12] deals with HEK293. Kind of data set: Induction of cell proliferation in human HEK293 cells expressing NK1R assessed as increase in cell viability at 0.1 to 1000 nM incubated for 48 hrs by MTT assay. It is filed as functional, cell-based. The following applies: dose 0.1-1000 nM.
Data set [13] deals with NIH3T3. Description: Induction of cell proliferation in mouse NIH3T3 cells assessed as increase in cell viability at 0.1 to 1000 nM incubated for 48 hrs by MTT assay. As to conditions: dose 0.1-1000 nM. The data set is classed as functional, cell-based.
In data set [14] the test system is Pseudomonas aeruginosa. Description: Antimicrobial activity against Pseudomonas aeruginosa PAO1 assessed as inhibition of bacterial growth incubated for 18 hrs by serial dilution method. The data set is classed as functional.
Data set [15] is filed under the species Mus musculus. Kind of data set: Antimicrobial activity in Staphylococcus aureus ATCC 25923 infected Kunming mouse excisional wound model assessed as decrease in bacterial growth at 1 10^-4M, TOP BID and measured upto 8 days by image analysis. The following applies: time <= 8.0 day. The data set is classed as functional, organism-based.
Data set [16] has as its system Staphylococcus aureus. Kind of data set: Bactericidal activity against Staphylococcus aureus ATCC 25923 assessed as reduction in colony forming unit at 2 times MIC and measured after 120 mins by time-kill kinetics assay. It is filed as functional, organism-based.
For data set [17], the species on record is Mus musculus. Kind of data set: Wound healing activity in Staphylococcus aureus ATCC 25923 infected Kunming mouse excisional wound model assessed as increase in wound repair at 1 10^-4M, TOP BID and measured upto 8 days by image analysis. As to conditions: time <= 8.0 day. The data set is classed as functional, organism-based.
The test system of data set [18] is RAW264.7. Description: Anti-inflammatory activity against LPS-stimulated mouse RAW264.7 cells assessed as reduction in IL-1beta mRNA expression level at 1 to 16 uM incubated for 4 hrs by RT-qPCR analysis. It is filed as functional, cell-based. The following applies: dose 1-16 µM. In general terms: In qPCR the cycle at which signal appears reflects the starting amount.

The test system of data set [19] is RAW264.7. Kind of data set: Anti-inflammatory activity against LPS-stimulated mouse RAW264.7 cells assessed as reduction in TNF-alpha mRNA expression level at 1 to 16 uM incubated for 4 hrs by RT-qPCR analysis. The data set is classed as functional, cell-based. The following applies: dose 1-16 µM.
Data set [20] relates to RAW264.7. Description: Anti-inflammatory activity against LPS-stimulated mouse RAW264.7 cells assessed as reduction in IL-6 mRNA expression level at 1 to 16 uM incubated for 4 hrs by RT-qPCR analysis. The data set is classed as functional, cell-based. The following applies: dose 1-16 µM.
Data set [21] can be described thus: Cytotoxicity against mouse RAW264.7 cells assessed as cell survival rate at 16 uM incubated for 24 hrs by MTT assay. As to conditions: read-out: Survival. The data set is classed as toxicity, cell-based.
In the next data set the test system is Lipopolysaccharide (LPS). Kind of data set: Binding affinity to Escherichia coli O111:B4 LPS assessed as dissociation constant by ITC assay.
The species entered for data set [22] is Mus musculus. Description: Wound healing activity in Kunming mouse full-thickness excisional wound model with splints assessed as increase in wound healing rate at 1 10^-7M, TOP BID and measured upto 8 days by image analysis. As to conditions: time <= 8.0 day. The data set is classed as functional, organism-based.

Converted amounts (≈) assume the structure as drawn. The source made the active and inactive calls. The calls are words filed in the database; no cut-off is given here.

The term MIC denotes the lowest concentration that inhibits growth of the organism. Turning to `CSCC[C@H](NC(=O)[C@H](CC(C)C)NC(=O)CNC(=O)[C@H](Cc1ccccc1)NC(=O)[C@H](Cc1ccccc1)NC(=O)[C@H](CCC(N)=O)NC(=O)[C@H](CO)NC(=O)[C@H](C)NC(=O)[C@H](CCCCN)NC(=O)CNC(=O)[C@@H](N)[C@H](C)O)C(N)=O`, in the data set on RAW264.7 [1], the inhibition entry is “inactive”. Besides, the hemolysis at 1 h, 400 µM in data set [2] stood at 5.05%. Besides, the MIC in the data set with Escherichia coli [3], in the data set with Staphylococcus aureus [4], in the data set on Staphylococcus aureus [8], in the data set with Bacillus subtilis, in the data set with Pseudomonas aeruginosa [9] and in the data set on Escherichia coli [10] was above 128 µM in each case. Further, in the data set on Pseudomonas aeruginosa [14], the MIC was above 128 µM. The result in the data set on NIH3T3 [5], in the data set listed under Mus musculus [11], in the data set with HEK293 [12] and in the data set with NIH3T3 [13] was Active. Further, in the data set with HEK293 [6], the result was inactive. Moreover, the Activity result in the data set on RAW264.7 [7] is given as “Non-Toxic”.
With `CC1(C)S[C@@H]2[C@H](NC(=O)[C@H](N)c3ccc(O)cc3)C(=O)N2[C@H]1C(=O)O` [AMOXICILLIN], the MIC is 16 µM (≈ 5.85 µg/mL) in the data set with Escherichia coli [3]; 2 µM (≈ 0.731 µg/mL) in the data set on Staphylococcus aureus [4]; below 1 µM with Staphylococcus aureus [8]; 8 µM (≈ 2.92 µg/mL) with Bacillus subtilis; above 128 µM in the data set with Pseudomonas aeruginosa [9]; 4 µM (≈ 1.46 µg/mL) in the data set with Escherichia coli [10]. The minimum inhibitory concentration (MIC) in the data set on Pseudomonas aeruginosa [14] is above 128 µM.
In the case of `CN[C@H](CC(C)C)C(=O)N[C@H]1C(=O)N[C@@H](CC(N)=O)C(=O)N[C@H]2C(=O)N[C@H]3C(=O)N[C@H](C(=O)N[C@H](C(=O)O)c4cc(O)cc(O)c4-c4cc3ccc4O)[C@H](O)c3ccc(c(Cl)c3)Oc3cc2cc(c3O[C@@H]2O[C@H](CO)[C@@H](O)[C@H](O)[C@H]2O[C@H]2C[C@](C)(N)[C@H](O)[C@H](C)O2)Oc2ccc(cc2Cl)[C@H]1O` [VANCOMYCIN], the MIC in the data set on Escherichia coli [3] is 64 µM (≈ 92.8 µg/mL); with Staphylococcus aureus [4], below 1 µM; in the data set on Staphylococcus aureus [8], below 1 µM; in the data set with Bacillus subtilis, below 1 µM; with Pseudomonas aeruginosa [9], above 128 µM; with Escherichia coli [10], 64 µM (≈ 92.8 µg/mL). Besides, in the data set on Pseudomonas aeruginosa [14], the minimum inhibitory concentration (MIC) is above 128 µM. In addition, the result in the data set listed under Mus musculus [15] and in the data set listed under Mus musculus [17] was Active. Also, in the data set on Staphylococcus aureus [16], the result was inactive.
For orientation: Kd means the free concentration of one partner at which half of the binding sites on the other are occupied at equilibrium, for simple one-to-one binding. In the case of H-LKKWLKKWTGKASQFFGLM-NH2, in the data set with RAW264.7 [1], the inhibition entry was “Active”. The Activity entry with RAW264.7 [18], in the data set on RAW264.7 [19] and in the data set on RAW264.7 [20] was “Dose-Dependent Effect” in each case. Also, the hemolysis at 1 h, 400 µM in data set [2] was 7.88%. The MIC turned out to be 2 µM in the data set with Escherichia coli [3]; 8 µM in the data set with Staphylococcus aureus [4]; 4 µM with Staphylococcus aureus [8]; 2 µM in the data set with Bacillus subtilis; 4 µM with Pseudomonas aeruginosa [9]; 2 µM with Escherichia coli [10]. For the same compound, the minimum inhibitory concentration (MIC) in the data set on Pseudomonas aeruginosa [14] is 4 µM. In addition, the viability at 24 h, 16 µM in [21] was above 90%. For the same compound, the equilibrium dissociation constant (Kd) with Lipopolysaccharide (LPS) was 25 µM. Moreover, the result in the data set on NIH3T3 [5], in the data set filed under Mus musculus [11], in the data set on HEK293 [12], with NIH3T3 [13] and in the data set filed under Mus musculus [22] was Active. Besides, the outcome with HEK293 [6] was inactive.
Turning to H-LKKWLKKWTPKASQFFGLM-NH2, in the data set with RAW264.7 [1], the inhibition result is “Active”. The Activity entry in the data set on RAW264.7 [18], in the data set with RAW264.7 [19] and with RAW264.7 [20] was “Dose-Dependent Effect” in each case. For the same compound, the hemolysis at 1 h, 400 µM in [2] was determined as 2.94%. The MIC stood at 2 µM in the data set with Escherichia coli [3]; 32 µM in the data set on Staphylococcus aureus [4]; 32 µM in the data set on Staphylococcus aureus [8]; 2 µM in the data set with Bacillus subtilis; 2 µM with Pseudomonas aeruginosa [9]; 2 µM in the data set on Escherichia coli [10]. The MIC in the data set on Pseudomonas aeruginosa [14] is 4 µM. Besides, in [21], the viability at 24 h, 16 µM was above 90%. Also, the Kd with Lipopolysaccharide (LPS) was 311 µM. In addition, the result with NIH3T3 [5], in the data set listed under Mus musculus [11], in the data set on HEK293 [12], with NIH3T3 [13] and in the data set filed under Mus musculus [22] was Active. In addition, in the data set on HEK293 [6], the result was inactive.
H-LKKWTGKASQFFGLM-NH2: the inhibition result with RAW264.7 [1] was “inactive”. In addition, the hemolysis at 1 h, 400 µM in data set [2] was 1.01%. Further, the minimum inhibitory concentration (MIC) is 64 µM in the data set on Escherichia coli [3]; above 128 µM with Staphylococcus aureus [4]; above 128 µM with Staphylococcus aureus [8]; 64 µM in the data set on Bacillus subtilis; 128 µM in the data set with Pseudomonas aeruginosa [9]; 64 µM with Escherichia coli [10]. For the same compound, in the data set on Pseudomonas aeruginosa [14], the minimum inhibitory concentration (MIC) turned out to be 128 µM. Further, the Activity result in the data set with RAW264.7 [7] was “Non-Toxic”. Moreover, the result in the data set listed under Mus musculus [11] was Active.
For H-LKKWTLKASQFFGLM-NH2, the inhibition entry in the data set on RAW264.7 [1] is “Active”. Further, the hemolysis at 1 h, 400 µM in data set [2] is 11.2%. The MIC is 16 µM with Escherichia coli [3]; 128 µM with Staphylococcus aureus [4]; above 128 µM with Staphylococcus aureus [8]; 16 µM in the data set with Bacillus subtilis; 64 µM in the data set with Pseudomonas aeruginosa [9]; 16 µM in the data set on Escherichia coli [10]. In addition, the MIC with Pseudomonas aeruginosa [14] turned out to be 64 µM. Moreover, the viability at 24 h, 16 µM in data set [21] was above 90%. Moreover, the result in the data set listed under Mus musculus [11] was Active.

For the origin of these results see ChEMBL document CHEMBL5338731, “Development of Neuropeptide Hemokinin-1 Analogues with Antimicrobial and Wound-Healing Activity” (J Med Chem, 2023).
